{"source": "patent US20220031684A1", "about": "“PROPHYLACTIC EFFICACY OF SEROTONIN 4 RECEPTOR AGONISTS AGAINST STRESS” (THE TRUSTEES OF COLUMBIA UNIVERSITY IN THE CITY OF NEW YORK, priority 2019, published 2022)", "key": {"C57BL/6NTac mice [1]": {"system": "C57BL/6NTac mice", "experiment": "Sucrose splash test (ST) in CORT model", "type": "in vivo", "conditions": "male C57BL/6NTac; Flx 18 mg/kg/day or RS-67,333 1.5 mg/kg/day for 3 weeks prior to CORT", "procedure": "(§1) This chronic CORT elevation dysregulates the hypothalamic-pituitary-adrenal axis (HPA) in a manner similar to that observed in clinical depression. The dose and duration of CORT treatment was selected based on previous studies. CORT (35 μg/ml, equivalent to about 5 mg/kg/day) dissolved in 0.45% hydroxypropyl-o-cyclodextrin (0-CD) or vehicle (VEH) (0.45% j-CD) was available ad libitum in the drinking water in opaque bottles to protect it from light. VEH- and CORT-treated water was changed every 3 days to prevent possible degradation. Contextual Fear Conditioning (CFC): A 3-shock CFC procedure was administered as previously published. Briefly, mice were placed into context A and administered 3 2-s shocks (0.75 mA) at 180 s, 240 s or 300 s following placement into context A. Mice were removed from the context 15 s following the termination of shock (at 317 s). For context retrieval, mice were placed back into context A for 300 s. Electrophysiology: Electrophysiology was conducted as previously described. Statistical Analysis: Results from data analyses are expressed as means±SEM. Alpha was set to 0.05 for all analyses. Data were analyzed using GraphPad Prism v7.0 or v8.0. For all experiments, unless otherwise noted, one- or two-way ANOVAs with repeated-measures were applied to the data as appropriate. […] Videos were scored using ANY-maze behavior tracking software (Stoelting, Wood Dale, Ill.). […]"}, "C57BL/6NTac mice [2]": {"system": "C57BL/6NTac mice", "experiment": "Novelty-suppressed feeding (NSF) in CORT model", "type": "in vivo", "conditions": "male C57BL/6NTac; Flx 18 mg/kg/day or RS-67,333 1.5 mg/kg/day for 3 weeks prior to CORT", "procedure": "as §1"}, "DRN 5-HT neurons": {"system": "DRN 5-HT neurons", "experiment": "In vivo electrophysiological recordings of DRN 5-HT neurons", "design": "species or system mice", "conditions": "RS67333 1.5 mg/kg i.p.; after vs before administration", "procedure": "FIGS. 7A-7G. Acute 5-HT4 receptor stimulation induces fast anxiolytic-like effects on 5-HT function through a modulation of the mPFC in an anxious BALB/cJRj mouse strain. (7A) Before the administration of RS67333 (RS, 1.5 mg/kg), different tracks were performed to record 5-HT neurons for 30 min. At the end of this period, RS67333 was administered i.p. and 30 min after, two or three subsequent tracks were realized. (7B) Discharge frequency of DRN 5-HT neurons is assessed as mean firing rate. The number of neurons tested is indicated in each histogram (n=25 and 26 before and after RS injection for a total of n=5 mice). Data are mean±[…] of DRN 5-HT neurons determined before the administration of RS67333. (7C) Typical recordings of DRN 5-HT neurons in the different experimental conditions. Histograms in the upper panels represent the number of action potentials (APs) per 10 seconds (scale bar). […] (7E) Cortical 5-HT depletion by p-CPA pre-treatment is measured as mean 5-HT levels (n=6-8 mice per group). (7F and 7G) Anxiety is measured in the elevated plus maze (EPM) as mean time or percent time spent in the open arms (F and inset), as mean ratio ambulatory distance in open arms/total distance (7G) and as mean total ambulatory distance (inset) (n=8-11 mice per group). […]"}, "[3]": {"biological_target": "other neurotransmitter receptors", "conditions": "except sigma receptors; cited from earlier work"}, "129S6/SvEv mice": {"system": "129S6/SvEv mice", "experiment": "Open field (OF) after CFC", "type": "in vivo", "procedure": "as §1, with “appropriate. Significant main effects and/or interactions were followed by Fisher's PLSD post hoc analysis or unpaired t-tests. Drugs: All drugs were prepared in physiological saline and all injections were administered intraperitoneally (i.p.) in volumes of 0.1 cc per […] body weight unless otherwise noted. Fluoxetine hydrochloride (Flx): Flx (BioTrend Chemicals AG, BG197, Zurich, Germany) was administered in the drinking water (18 mg/kg/day) for 3 weeks before the start of CORT. […] (R,S)-ketamine (K): (R,S)-ketamine (Ketaset III, Ketamine HCl injection, Fort Dodge Animal Health, Fort Dodge, Iowa) was administered in a single dose at 30 mg/kg of body weight 1 week before the start of CFC.” for “appropriate.”"}}, "data": [{"compound": "CCCCN1CCC(CCC(=O)c2cc(Cl)c(N)cc2OC)CC1.Cl", "note": "[RS-67,333, 1-(4-amino-5-chloro-2-methoxyphenyl)-3-[1(n-butyl)-4-piperidinyl]-1-propanone HCl]", "values": [{"measurement": "grooming duration (ST) vs CORT+Veh", "setting": "C57BL/6NTac mice [1]", "value": "increased grooming duration"}, {"measurement": "latency to approach the food pellet (NSF) vs CORT+Veh", "setting": "C57BL/6NTac mice [2]", "value": "significantly decreased latency"}, {"measurement": "increase of the discharge frequency of DRN 5-HT neurons", "setting": "DRN 5-HT neurons", "value": 63, "unit": "%"}, {"measurement": "pKi for other neurotransmitter receptors", "setting": "[3]", "value": "less than 6.7"}, {"measurement": "p, OF Time in Center, Saline vs. RS67333 (10 mg/kg)", "setting": "129S6/SvEv mice; FIG. 2I, t-test", "value": 0.2475}, {"measurement": "time spent in the center of the OF", "setting": "129S6/SvEv mice; female 129S6/SvEv, 1.5 or 10 mg/kg", "value": "did not alter"}, {"measurement": "time in the center of the OF arena vs saline", "setting": "129S6/SvEv mice; male 129S6/SvEv, 10 mg/kg", "value": "comparable amount of time"}]}]}
